Data taken from PubChem BioAssay AID1963982 (Molecular Pharmacology Branch, DTP, NCI, 2024).
pIC50: −log10 of the molar value. “And” between values parts separate entries of the source, which are not always exact repeats. Equal values may be shown once.

Test system: 313798-341-R-J2-PDC spheroids, viability
Assay: Anticancer human tumor 313798-341-R-J2-PDC patient-derived cervical squamous cell carcinoma cell line growth inhibition [PI3K]
Details: spheroids with HUVEC and MSC; for viability, T/C: stronger effect = lower value
Summary of the method: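 Multi-cell spheroids combine tumor cells with HUVEC and human MSCs, treated with targeted agents alone or with inavolisib, alpelisib, duvelisib or copanlisib. Concentrations fall in half-log steps from at or near clinical Cmax, or from 10 microM where Cmax is unknown; viability read-out.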

[1] = curve of first compound, second compound 0.00316 µM
[2] = curve of first compound, second compound 0.01 µM
[3] = curve of first compound, second compound 0.0316 µM
[4] = curve of first compound, second compound 0.1 µM
[5] = curve of first compound, second compound 0.316 µM
[6] = curve of first compound, second compound 1 µM
[7] = second compound 0.00316 µM, first compound 0.0316 µM
[8] = second compound 0.00316 µM, first compound 0.1 µM
[9] = second compound 0.00316 µM, first compound 0.316 µM
[10] = second compound 0.00316 µM, first compound 1 µM
[11] = second compound 0.00316 µM, first compound 3.16 µM
[12] = second compound 0.00316 µM, first compound 10 µM
[13] = second compound 0.01 µM, first compound 0.0316 µM
[14] = second compound 0.01 µM, first compound 0.1 µM
[15] = second compound 0.01 µM, first compound 0.316 µM
[16] = second compound 0.01 µM, first compound 1 µM
[17] = second compound 0.01 µM, first compound 3.16 µM
[18] = second compound 0.01 µM, first compound 10 µM
[19] = second compound 0.0316 µM, first compound 0.0316 µM
[20] = second compound 0.0316 µM, first compound 0.1 µM
[21] = second compound 0.0316 µM, first compound 0.316 µM
[22] = second compound 0.0316 µM, first compound 1 µM
[23] = second compound 0.0316 µM, first compound 3.16 µM
[24] = second compound 0.0316 µM, first compound 10 µM
[25] = second compound 0.1 µM, first compound 0.0316 µM
[26] = second compound 0.1 µM, first compound 0.1 µM
[27] = second compound 0.1 µM, first compound 0.316 µM
[28] = second compound 0.1 µM, first compound 1 µM
[29] = second compound 0.1 µM, first compound 3.16 µM
[30] = second compound 0.1 µM, first compound 10 µM
[31] = second compound 0.316 µM, first compound 0.0316 µM
[32] = second compound 0.316 µM, first compound 0.1 µM
[33] = second compound 0.316 µM, first compound 0.316 µM
[34] = second compound 0.316 µM, first compound 1 µM
[35] = second compound 0.316 µM, first compound 3.16 µM
[36] = second compound 0.316 µM, first compound 10 µM
[37] = second compound 1 µM, first compound 0.0316 µM
[38] = second compound 1 µM, first compound 0.1 µM
[39] = second compound 1 µM, first compound 0.316 µM
[40] = second compound 1 µM, first compound 1 µM
[41] = second compound 1 µM, first compound 3.16 µM
[42] = second compound 1 µM, first compound 10 µM
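Also: spheroids exposed to compounds for seven days.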
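For viability, T/C in this document: 100% = DMSO vehicle control viability.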

CC1(C)CCC(Nc2ncc(C(F)(F)F)c(-c3c[nH]c4c(P(C)(C)=O)c(C#N)ccc34)n2)CN1 (stereo not drawn) + CC(Nc1ccc2c(c1)OCCn1cc(N3C(=O)OCC3C(F)F)nc1-2)C(N)=O
pIC50 [1]: 7.50 | pIC50 [2]: > 7.50 | pIC50 [3]: > 7.50 | pIC50 [4]: > 7.50 | pIC50 [5]: > 7.50 | pIC50 [6]: > 7.50 | viability, T/C [7]: 53.1% | viability, T/C [8]: 45.8% | viability, T/C [9]: 42.4% | viability, T/C [10]: 48.7% | viability, T/C [11]: 51.6% | viability, T/C [12]: 29.3% | viability, T/C [13]: 49.6% | viability, T/C [14]: 47.2% | viability, T/C [15]: 46.1% | viability, T/C [16]: 44.1% | viability, T/C [17]: 49.4% | viability, T/C [18]: 25.4% | viability, T/C [19]: 45% | viability, T/C [20]: 40.9% | viability, T/C [21]: 37.9% | viability, T/C [22]: 38.6% | viability, T/C [23]: 41% | viability, T/C [24]: 29.1% | viability, T/C [25]: 36.7% | viability, T/C [26]: 31.6% | viability, T/C [27]: 31.1% | viability, T/C [28]: 31.7% | viability, T/C [29]: 30.9% | viability, T/C [30]: 14.8% | viability, T/C [31]: 26.4% | viability, T/C [32]: 25.3% | viability, T/C [33]: 24.9% | viability, T/C [34]: 23.1% | viability, T/C [35]: 29.3% | viability, T/C [36]: 8.87% | viability, T/C [37]: 21.1% | viability, T/C [38]: 20.6% | viability, T/C [39]: 21.5% | viability, T/C [40]: 21.9% | viability, T/C [41]: 23.9% | viability, T/C [42]: 3.07%

CC(C)NCC(C(=O)N1CCN(c2ncnc3c2C(C)CC3O)CC1)c1ccc(Cl)cc1 (stereo not drawn) + CC(Nc1ncnc2nc[nH]c12)c1cc2cccc(Cl)c2c(=O)n1-c1ccccc1
pIC50 [3]: 5.79 | pIC50 [4]: 5.73 | pIC50 [5]: 5.76 | pIC50 [6]: 5.74 | pIC50 (curve of first compound, second compound 3.16 µM): 5.73 | pIC50 (curve of first compound, second compound 10 µM): 5.85 | viability, T/C [19]: 114% | viability, T/C [20]: 91.3% | viability, T/C [21]: 81.7% | viability, T/C [22]: 54% | viability, T/C [23]: 40.1% | viability, T/C [24]: 29.6% | viability, T/C [25]: 102% | viability, T/C [26]: 103% | viability, T/C [27]: 90.2% | viability, T/C [28]: 65.2% | viability, T/C [29]: 36.9% | viability, T/C [30]: 30.5% | viability, T/C [31]: 94% | viability, T/C [32]: 100% | viability, T/C [33]: 84.2% | viability, T/C [34]: 62% | viability, T/C [35]: 36.9% | viability, T/C [36]: 30% | viability, T/C [37]: 97.3% | viability, T/C [38]: 100% | viability, T/C [39]: 89.9% | viability, T/C [40]: 57.5% | viability, T/C [41]: 44.2% | viability, T/C [42]: 26.9% | viability, T/C (second compound 3.16 µM, first compound 0.0316 µM): 96.7% | viability, T/C (second compound 3.16 µM, first compound 0.1 µM): 87.4% | viability, T/C (second compound 3.16 µM, first compound 0.316 µM): 89.8% | viability, T/C (second compound 3.16 µM, first compound 1 µM): 63.2% | viability, T/C (second compound 3.16 µM, first compound 3.16 µM): 39.1% | viability, T/C (second compound 3.16 µM, first compound 10 µM): 26.7% | viability, T/C (second compound 10 µM, first compound 0.0316 µM): 91.3% | viability, T/C (second compound 10 µM, first compound 0.1 µM): 86.3% | viability, T/C (second compound 10 µM, first compound 0.316 µM): 75.9% | viability, T/C (second compound 10 µM, first compound 1 µM): 53.7% | viability, T/C (second compound 10 µM, first compound 3.16 µM): 39% | viability, T/C (second compound 10 µM, first compound 10 µM): 27.1%

C=CC(=O)N1CCN(c2nc(=O)n(-c3c(C)ccnc3C(C)C)c3nc(-c4c(O)cccc4F)c(F)cc23)C(C)C1 (stereo not drawn) + CC(Nc1ccc2c(c1)OCCn1cc(N3C(=O)OCC3C(F)F)nc1-2)C(N)=O
pIC50 [1]: < 5.00 | pIC50 [2]: < 5.00 | pIC50 [3]: < 5.00 | pIC50 [4]: < 5.00 | pIC50 [5]: < 5.00 | pIC50 [6]: < 5.00 | viability, T/C [7]: 111% | viability, T/C [8]: 92.3% | viability, T/C [9]: 97.2% | viability, T/C [10]: 96% | viability, T/C [11]: 105% | viability, T/C [12]: 98.7% | viability, T/C [13]: 98.3% | viability, T/C [14]: 102% | viability, T/C [15]: 97.8% | viability, T/C [16]: 95.2% | viability, T/C [17]: 102% | viability, T/C [18]: 97.7% | viability, T/C [19]: 110% | viability, T/C [20]: 97.1% | viability, T/C [21]: 104% | viability, T/C [22]: 96.9% | viability, T/C [23]: 106% | viability, T/C [24]: 102% | viability, T/C [25]: 104% | viability, T/C [26]: 95.3% | viability, T/C [27]: 102% | viability, T/C [28]: 101% | viability, T/C [29]: 118% | viability, T/C [30]: 100% | viability, T/C [31]: 83.7% | viability, T/C [32]: 85.8% | viability, T/C [33]: 86.8% | viability, T/C [34]: 96.7% | viability, T/C [35]: 87.5% | viability, T/C [36]: 70% | viability, T/C [37]: 55.2% | viability, T/C [38]: 59.5% | viability, T/C [39]: 54.8% | viability, T/C [40]: 56.4% | viability, T/C [41]: 66.7% | viability, T/C [42]: 56.2%

C[C@@H](NC(=O)c1ncnc(N)c1Cl)c1ncc(C(=O)Nc2cc(C(F)(F)F)c(Cl)cn2)s1
viability, T/C (compound 0.0316 µM): 94.6% [middle of 4 runs] | viability, T/C (compound 0.1 µM): 102% [middle of 4 runs] | viability, T/C (compound 0.316 µM): 99.1% [middle of 4 runs] | viability, T/C (compound 1 µM): 97.8% [middle of 4 runs] | viability, T/C (compound 3.16 µM): 120% [middle of 4 runs] | pIC50 (curve of compound): < 5.00 and 5.23

Cc1nc(NC(=O)N2CCCC2C(N)=O)sc1-c1ccnc(C(C)(C)C(F)(F)F)c1 (stereo not drawn)
viability, T/C (compound 0.0316 µM): 99.9% [middle of 8 runs] | viability, T/C (compound 0.1 µM): 97.5% [middle of 8 runs] | viability, T/C (compound 0.316 µM): 102% [middle of 8 runs] | viability, T/C (compound 1 µM): 90.6% [middle of 8 runs] | viability, T/C (compound 3.16 µM): 59.9% [middle of 8 runs] | viability, T/C (compound 10 µM): 36.2% [middle of 8 runs] | IC50 (compound alone, run of 04/24/2023): 4.93 µM [middle of 8 runs]

CC(Cn1ccc(-c2ccc(C#N)c(Cl)c2)n1)NC(=O)c1cc(C(C)O)[nH]n1 (stereo not drawn)
viability, T/C (compound 0.0316 µM): 98.1% and 107% and 99.7% | viability, T/C (compound 0.1 µM): 111% and 96.9% and 101% | viability, T/C (compound 0.316 µM): 101% and 107% and 113% | viability, T/C (compound 1 µM): 113% and 97.7% and 93.9% | viability, T/C (compound 3.16 µM): 99% and 105% and 104% | viability, T/C (compound 10 µM): 99.1% and 101% and 93.9% | pIC50 (curve of compound): < 5.00

C=CC(=O)N1CCN(c2nc(=O)n(-c3c(C)ccnc3C(C)C)c3nc(-c4c(O)cccc4F)c(F)cc23)C(C)C1 (stereo not drawn)
viability, T/C (compound 0.0316 µM): 100% [middle of 4 runs] | viability, T/C (compound 0.1 µM): 95% [middle of 4 runs] | viability, T/C (compound 0.316 µM): 95.7% [middle of 4 runs] | viability, T/C (compound 1 µM): 97.1% [middle of 4 runs] | viability, T/C (compound 3.16 µM): 105% [middle of 4 runs] | viability, T/C (compound 10 µM): 96.5% (2×) and 104% and 105% | pIC50 (curve of compound): < 5.00
